biological target: T1, human full-length MKNK1 (Homo sapiens, UniProt Q9BUB5, T385D); assay: MKNK1 kinase high ATP assay (TR-FRET); format: biochemical; conditions: TR-FRET, 2 mM ATP (high ATP), 15 min preincubation with enzyme, 30 min reaction at 22° C.; read-out: MKNK1 IC50
T1 construct: GST (N); purchased Carna Biosciences 02-145; host or cells: insect cells (baculovirus expression system)
Description: MKNK1 Kinase High ATP Assay
MKNK1-inhibitory activity at high ATP of compounds of the present invention after their preincubation with MKNK1 was quantified employing the TR-FRET-based MKNK1 high ATP assay as described in the following paragraphs.
As substrate for the kinase reaction the biotinylated peptide biotin-Ahx-[…] (C-terminus in amide form) was used, which can be purchased e.g. from the company Biosyntan (Berlin-Buch, Germany).
For the assay 50 nL of a 100 fold concentrated solution of the test compound in DMSO was pipetted into a black low volume 384 well microtiter plate (Greiner Bio-One, Frickenhausen, Germany), 2 μL of a solution of MKNK1 in aqueous assay buffer [50 mM HEPES pH 7.5, 5 mM MgCl2, 1.0 mM dithiothreitol, 0.005% (v/v) Nonidet-P40 (Sigma)] was added and the mixture was incubated for 15 min at 22° C. to allow pre-binding of the test compounds to the enzyme before the start of the kinase reaction. Then the kinase reaction was started by the addition of 3 μL of a solution of adenosine-tri-phosphate (ATP, 3.3 mM=>final conc. in the 5 μL assay volume is 2 mM) and substrate (0.1 μM=>final conc. in the 5 μL assay volume is 0.06 μM) in assay buffer and the resulting mixture was incubated for a reaction time of 30 min at 22° C. The concentration of MKNK1 was adjusted depending of the activity of the enzyme lot and was chosen appropriate to have the assay in the linear range, typical concentrations were in the range of 0.003 μg/mL. The reaction was stopped by the addition of 5 μL of a solution of TR-FRET detection reagents (5 nM streptavidine-XL665 [Cisbio Bioassays, Codolet, France] and 1 nM anti-ribosomal protein S6 (pSer236)-antibody from Invitrogen [#44921G] and 1 nM LANCE EU-W1024 labeled ProteinG [Perkin-Elmer, product no. AD0071]) in an aqueous EDTA-solution (100 mM EDTA, 0.1% (w/v) bovine serum albumin in 50 mM HEPES pH 7.5).
The resulting mixture was incubated for 1 h at 22° C. to allow the formation of complex between the phosphorylated biotinylated peptide and the detection reagents. Subsequently the amount of phosphorylated substrate was evaluated by measurement of the resonance energy transfer from the Eu-chelate to the streptavidine-XL. Therefore, the fluorescence emissions at 620 nm and 665 nm after excitation at 350 nm were measured in a TR-FRET reader, e.g. a Rubystar (BMG Labtechnologies, Offenburg, Germany) or a Viewlux (Perkin-Elmer). The ratio of the emissions at 665 nm and at 622 nm was taken as the measure for the amount of phosphorylated substrate.

T1 sequence (Q9BUB5 1-424 isoform Q9BUB5-2 T344D): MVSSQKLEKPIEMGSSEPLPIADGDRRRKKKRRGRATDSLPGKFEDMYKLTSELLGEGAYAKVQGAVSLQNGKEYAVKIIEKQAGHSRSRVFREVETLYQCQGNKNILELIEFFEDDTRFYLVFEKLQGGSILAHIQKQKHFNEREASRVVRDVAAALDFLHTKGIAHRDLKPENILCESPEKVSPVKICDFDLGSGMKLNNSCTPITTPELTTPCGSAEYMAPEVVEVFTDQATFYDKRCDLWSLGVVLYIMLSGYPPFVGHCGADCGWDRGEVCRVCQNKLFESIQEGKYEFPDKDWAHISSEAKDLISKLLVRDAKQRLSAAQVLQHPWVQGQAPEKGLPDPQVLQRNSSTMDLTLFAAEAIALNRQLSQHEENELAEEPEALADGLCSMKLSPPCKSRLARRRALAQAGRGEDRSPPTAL

IC50 [nM] | Structure (SMILES)
6.5 | Cc1cc(Nc2ncnc3sc4c(c23)CC[C@H](C(=O)N2CC(N(C)C)C2)C4)c(=O)n2c1C(=O)N[C@]21CC[C@@](O)(C(F)(F)F)CC1 [Example 62]
0.8 | Cc1cc(Nc2ncnc3sc4c(c23)CC[C@H](C(=O)N2CC(C#N)C2)C4)c(=O)n2c1C(=O)NC21CSC1 [Example 47, 1-({(7S)-4-[(8-Methyl-1,5-dioxo-1,5-dihydro-2H-spiro[imidazo[1,5-a]pyridine-3,3′-thietan]-6-yl)amino]-5,6,7,8-tetrahydro[1]benzothieno[2,3-d]pyrimidin-7-yl}carbonyl)azetidine-3-carbonitrile]
0.4 | Cc1cc(Nc2ncnc3sc4c(c23)CC[C@H](C(=O)N2CC(N(C)C)C2)C4)c(=O)n2c1C(=O)NC21CCC1 [Example 23, 6′-{[(7S)-7-{[3-(Dimethylamino)azetidin-1-yl]carbonyl}-5,6,7,8-tetrahydro[1]benzothieno[2,3-d]pyrimidin-4-yl]amino}-8′-methyl-2′H-spiro[cyclobutane-1,3′-imidazo[1,5-a]pyridine]-1′,5′-dione]
0.6 | Cc1cc(Nc2ncnc3sc4c(c23)CC[C@H](C(=O)N2CC(N(C)C)C2)C4)c(=O)n2c1C(=O)NC21CCC(F)(F)CC1 [Example 55, 6′-{[(7S)-7-{[3-(Dimethylamino)azetidin-1-yl]carbonyl}-5,6,7,8-tetrahydro[1]benzothieno[2,3-d]pyrimidin-4-yl]amino}-4,4-difluoro-8′-methyl-2′H-spiro[cyclohexane-1,3′-imidazo[1,5-a]pyridine]-1′,5′-dione]
1.5 | Cc1cc(Nc2ncnc3sc4c(c23)CC[C@H](C(=O)N2CC(C#N)C2)C4)c(=O)n2c1C(=O)N[C@]21CC[C@@](O)(C(F)(F)F)CC1 [Example 82, 1-{[(7S)-4-{[(cis)-4-Hydroxy-8′-methyl-1′,5′-dioxo-4-(trifluoromethyl)-1′,5′-dihydro-2′H-spiro[cyclohexane-1,3′-imidazo[1,5-a]pyridin]-6′-yl]amino}-5,6,7,8-tetrahydro[1]benzothieno[2,3-d]pyrimidin-7-yl]carbonyl}azetidine-3-carbonitrile]
0.2 | Cc1cc(Nc2ncnc3sc4c(c23)CC[C@H](C(=O)N(C)C)C4)c(=O)n2c1C(=O)NC21CCCCC1 [Example 2, (7S)—N, N-Dimethyl-4-[(8′-methyl-1′,5′-dioxo-1′,5′-dihydro-2′H-spiro[cyclohexane-1,3′-imidazo[1,5-a]pyridin]-6′-yl)amino]-5,6,7,8-tetrahydro[1]benzothieno[2,3-d]pyrimidine-7-carboxamide]
0.4 | Cc1cc(Nc2ncnc3sc4c(c23)CC[C@H](C(=O)N2CCN(C)[C@H](C)C2)C4)c(=O)n2c1C(=O)NC21CCC1 [Example 25, 6′-{[(7S)-7-{[(3R)-3,4-Dimethylpiperazin-1-yl]carbonyl}-5,6,7,8-tetrahydro[1]benzothieno[2,3-d]pyrimidin-4-yl]amino}-8′-methyl-2′H-spiro[cyclobutane-1,3′-imidazo[1,5-a]pyridine]-1′,5′-dione]
1.4 | Cc1cc(Nc2ncnc3sc4c(c23)CC[C@H](C(=O)N2CCN(C)[C@H](C)C2)C4)c(=O)n2c1C(=O)NC21CCC(F)(F)CC1 [Example 57, 6′-{[(7S)-7-{[(3R)-3,4-Dimethylpiperazin-1-yl]carbonyl}-5,6,7,8-tetrahydro[1]benzothieno[2,3-d]pyrimidin-4-yl]amino}-4,4-difluoro-8′-methyl-2′H-spiro[cyclohexane-1,3′-imidazo[1,5-a]pyridine]-1′,5′-dione]
0.4 | Cc1cc(Nc2ncnc3sc4c(c23)CC[C@H](C(=O)N2CCN(C)[C@H](C)C2)C4)c(=O)n2c1C(=O)NC21CCCC1 [Example 35, 6′-{[(7S)-7-{[(3R)-3,4-Dimethylpiperazin-1-yl]carbonyl}-5,6,7,8-tetrahydro[1]benzothieno[2,3-d]pyrimidin-4-yl]amino}-8′-methyl-2′H-spiro[cyclopentane-1,3′-imidazo[1,5-a]pyridine]-1′,5′-dione]

Continued, molecule first:

Structure (SMILES) | IC50 [nM]
CN(C)[C@H]1CCN(C(=O)[C@H]2CCc3c(sc4ncnc(Nc5cc(Cl)c6n(c5=O)C5(CSC5)NC6=O)c34)C2)C1 [Example 105, 8-Chloro-6-({(7S)-7-[(3S)-3-(dimethylamino)pyrrolidine-1-carbonyl]-5,6,7,8-tetrahydro[1]benzothieno[2,3-d]pyrimidin-4-yl}amino)-2H-spiro[imidazo[1,5-a]pyridine-3,3′-thietane]-1,5-dione] | 0.1
O=C1NC2(CCC2)n2c1c(Cl)cc(Nc1ncnc3sc4c(c13)CC[C@H](C(=O)O)C4)c2=O [Example 93, (7S)-4-[(8′-Chloro-1′,5′-dioxo-1′,5′-dihydro-2′H-spiro[cyclobutane-1,3′-imidazo[1,5-a]pyridin]-6′-yl)amino]-5,6,7,8-tetrahydro[1]benzothieno[2,3-d]pyrimidine-7-carboxylic acid] | 1.3
C[C@@H]1CN(C(=O)[C@H]2CCc3c(sc4ncnc(Nc5cc(Cl)c6n(c5=O)C5(CCCCC5)NC6=O)c34)C2)CCN1C [Example 80, 8′-Chloro-6′-{[(7S)-7-{[(3R)-3,4-dimethylpiperazin-1-yl]carbonyl}-5,6,7,8-tetrahydro[1]benzothieno[2,3-d]pyrimidin-4-yl]amino}-2′H-spiro[cyclohexane-1,3′-imidazo[1,5-a]pyridine]-1′,5′-dione] | 0.2
C[C@@H]1COCCN1C(=O)[C@H]1CCc2c(sc3ncnc(Nc4cc(Cl)c5n(c4=O)C4(CCCC4)NC5=O)c23)C1 [Example 90, 8′-Chloro-6′-({(7S)-7-[(3R)-3-methylmorpholine-4-carbonyl]-5,6,7,8-tetrahydro[1]benzothieno[2,3-d]pyrimidin-4-yl}amino)-2′H-spiro[cyclopentane-1,3′-imidazo[1,5-a]pyridine]-1′,5′-dione] | 0.3
Cc1cc(Nc2ncnc3sc4c(c23)CC[C@H](C(=O)N2CCN(C)[C@H](C)C2)C4)c(=O)n2c1C(=O)NC21CSC1 [Example 50, 6-{[(7S)-7-{[(3R)-3,4-dimethylpiperazin-1-yl]carbonyl}-5,6,7,8-tetrahydro[1]benzothieno[2,3-d]pyrimidin-4-yl]amino}-8-methyl-2H-spiro[imidazo[1,5-a]pyridine-3,3′-thietane]-1,5-dione] | 0.3
CC1(C)NC(=O)c2c(Cl)cc(Nc3ncnc4sc5c(c34)CC[C@H](C(=O)N3CC(C#N)C3)C5)c(=O)n21 [Example 113, 1-{(7S)-4-[(8-Chloro-3,3-dimethyl-1,5-dioxo-1,2,3,5-tetrahydroimidazo[1,5-a]pyridin-6-yl)amino]-5,6,7,8-tetrahydro[1]benzothieno[2,3-d]pyrimidine-7-carbonyl}azetidine-3-carbonitrile] | 0.2
O=C1NC2(CCCCC2)n2c1c(Cl)cc(Nc1ncnc3sc4c(c13)CC[C@H](C(=O)N1C[C@H]3C[C@@H]1CO3)C4)c2=O [Example 81, 8′-Chloro-6′-({(7S)-7-[(1R,4R)-2-oxa-5-azabicyclo[2.2.1]hept-5-ylcarbonyl]-5,6,7,8-tetrahydro[1]benzothieno[2,3-d]pyrimidin-4-yl}amino)-2′H-spiro[cyclohexane-1,3′-imidazo[1,5-a]pyridine]-1′,5′-dione] | 0.3
N#CC1CN(C(=O)[C@H]2CCc3c(sc4ncnc(Nc5cc(Cl)c6n(c5=O)C5(CCCCC5)NC6=O)c34)C2)C1 [Example 77, 1-({(7S)-4-[(8′-Chloro-1′,5′-dioxo-1′,5′-dihydro-2′H-spiro[cyclohexane-1,3′-imidazo[1,5-a]pyridin]-6′-yl)amino]-5,6,7,8-tetrahydro[1]benzothieno[2,3-d]pyrimidin-7-yl}carbonyl)azetidine-3-carbonitrile] | 0.8
Cc1cc(Nc2ncnc3sc4c(c23)CC[C@H](C(=O)N2C[C@H]3C[C@@H]2CO3)C4)c(=O)n2c1C(=O)NC2(C)C [Example 33, 3,3,8-Trimethyl-6-({(7S)-7-[(1R,4R)-2-oxa-5-azabicyclo[2.2.1]hept-5-ylcarbonyl]-5,6,7,8-tetrahydro[1]benzothieno[2,3-d]pyrimidin-4-yl}amino)-2,3-dihydroimidazo[1,5-a]pyridine-1,5-dione] | 0.8
